Data published in patent US20240150335A1, “FUSED RING DERIVATIVES CONTAINING 1,4-OXAZEPANE” (MEDSHINE DISCOVERY INC., priority 2021, published 2024).

Assays:
Format in all cases: in vivo
[1] = Mouse tissue (bone marrow) distribution; conditions: CD-1 mice
Description: Experimental Example 5: Evaluation of Mouse Tissue (Bone Marrow) Distribution of the Compound of the Present Disclosure
Experimental purpose: To test the distribution of the compound of the present disclosure in the bone marrow and plasma of CD-1 mice
(§1) Experimental materials: CD-1 mice (male, 20 to 40 g, 4 to 6 weeks old, Beijing Vital River)
The content of the compound in the bone marrow and plasma of mice after oral administration was tested according to the standard protocol. In the experiment, the candidate compound was formulated into a clear solution. The vehicle was 5:95 DMSO and 10% hydroxypropyl β-cyclodextrin aqueous solution. A dose of 5 mg/kg was given to mice as a single oral administration. The whole blood samples and bone marrow samples were collected at 0.25, 0.5, 1, 2, 4, 6, and 24 hours, respectively. The whole blood samples were collected in commercial EDTA2K anticoagulant tubes. The tubes were centrifuged at 6000 g for 3 minutes. The supernatant was separated to obtain plasma samples. The acetonitrile solution containing internal standard was added to precipitate protein. The mixture was centrifuged. The supernatant was take out. An equal volume of water was added. After mixing well, plasma concentration was quantitatively analyzed by LC-MS/MS analysis method, and the area under the drug-time curve was calculated. The femur and tibia on both sides of the mice were taken, and the muscle was removed. One end was cut off, placed in a centrifuge tube with the open end downwards. The tubes were centrifuged at 8000 rpm for 1 minute. The precipitate was bone marrow. The bone marrow was mixed with 50% methanol-water, grinded into a homogenate. The homogenate was added with an acetonitrile solution containing an internal standard to precipitate protein. The mixture was centrifuged to take the supernatant, added with an equal volume of water. After mixing well, the drug concentration in bone marrow was quantitatively analyzed by LC-MS/MS analysis method, and the area under the drug-time curve was calculated.
The calculation formula of bone marrow/plasma distribution coefficient is: Bone marrow/Plasma Ratio=bone marrow AUC0-last/plasma AUC0-last.

[2] = Pharmacokinetic evaluation in CD-1 mice; conditions: oral administration 10.0 mg/kg
Description: Experimental Example 3: Pharmacokinetic Evaluation of the Compound of the Present Disclosure in […]
Experimental purpose: To test the pharmacokinetics of the compound in CD-1 mice in vivo
as §1
(§2) The pharmacokinetic characteristics of the compound in rodents after intravenous injection and oral administration were tested according to the standard protocol. In the experiment, the candidate compound was formulated into clear solutions, and a single intravenous injection and oral administration were respectively given to two mice. The vehicle of intravenous injection and oral administration was 1:1:8 DMSO/Solutol/water. The whole blood samples within 24 hours were collected in commercial EDTA2K anticoagulant tubes. The tubes were centrifuged at 6000 g for 3 minutes. The supernatant was separated to obtain plasma samples. 20 times the volume of acetonitrile solution containing internal standard was added to precipitate protein. The mixture was centrifuged. The supernatant was take out. An equal volume of water was added. Then the mixture was centrifuged to take the supernatant as the sample for sampling. Plasma concentration was quantitatively analyzed by LC-MS/MS analysis method, and pharmacokinetic parameters were calculated, such as apparent volume of distribution, clearance rate, half-life, area under the drug-time curve.

[3] = Pharmacokinetic evaluation in SD rats; conditions: oral administration 10.0 mg/kg
Description: Experimental Example 4: Pharmacokinetic Evaluation of the Compound of the Present Disclosure in Rats
Experimental purpose: To test the pharmacokinetics of the compound in SD rats in vivo
Experimental materials: SD rats (male, 200 to 300 g, 6 to 10 weeks old, Beijing Vital River)
as §2, with “rats.” for “mice.”, “is 5:95 DMSO and 10% hydroxypropyl β-cyclodextrin aqueous solution.” for “was 1:1:8 DMSO/Solutol/water.”

[4] = bone marrow, 5 mg/kg single oral administration
[5] = intravenous injection 2.0 mg/kg
[6] = plasma, intravenous injection 2.0 mg/kg
[7] = plasma, intravenous injection 2.0 mg/kg, read-out: Peak concentration Cmax

Cn1ncc2ccc(-c3ccc(C[C@@H](C#N)NC(=O)[C@@H]4CNCCCO4)c(F)c3)cc21 [Compound 8]
Bone marrow/plasma distribution coefficient ([1]; 5 mg/kg oral, bone marrow AUC0-last/plasma AUC0-last): 4.5
Bone marrow Area under drug-time curve AUC0-last PO [1, 4]: 82362 nmol·h/kg
Bone marrow Peak concentration Cmax [1, 4]: 6113 nmol/kg
Plasma Area under drug-time curve AUC0-last PO ([1]; plasma, 5 mg/kg single oral administration): 18.362 µM·h
Cmax ([1]; plasma, 5 mg/kg single oral administration, read-out: Plasma Peak concentration Cmax): 2300 nM
Bioavailability F [2, 5]: 79.6%
Clearance rate CL [2, 6]: 18.7 mL/min/kg
Volume of distribution at steady state Vdss [2, 6]: 8.3 L/kg
Cmax [2, 7]: 2310 nM
Area under drug-time curve AUC0-∞ PO ([2]; plasma): 17.008 µM·h
Half life T1/2 (PO) ([2]; plasma): 4.6 h
Bioavailability F [3, 5]: 39.1%
Clearance rate CL [3, 6]: 13.1 mL/min/kg
Volume of distribution at steady state Vdss [3, 6]: 1.9 L/kg
Cmax [3, 7]: 2240 nM
Area under drug-time curve AUC0-∞ PO ([3]; plasma): 11.864 µM·h
Half life T1/2 (PO) ([3]; plasma): 3.2 h
